Assay results reported in patent publication US20200397894A1, “COMPOSITIONS AND METHODS FOR TREATING CANCER” (University of Virginia Patent Foundation, priority 2016, published 2020).
pIC50: −log10 of the molar value.

What was measured:
FaDu cells = assay: Rereplication by propidium iodide staining and FACS (HNSCC); type: cell-based, human
Method: The effect of pevonedistat treatment or CDT2, geminin, or EMI1 knockdown on the cell cycle (and induction of DNA rereplication) was assessed by flow cytometry with propidium iodide (PI) staining. Cells were harvested at 72 or 96 hours post-treatment with pevonedistat or post-transfection, respectively. Cells were collected, washed with PBS, and resuspended in ethanol (75%). Cells were subsequently treated with 20 μg of DNase-free RNase and stained with PI following the manufacturer's protocol. FACSCAN™ (Becton, Dickinson and Company, Franklin Lakes, N.J., United States of America) was used to analyze the samples and G0-G1, S, and G2-M fractions were segmented. Subsequent analysis using FLOWJO® (FLOWJO, LLC, Ashland, Oreg., United States of America) and ModFit (Verity Software House, Topsham, Me., United States of America) software was used to determine apoptotic and re-replicating fractions. Where indicated, Cal27 and FaDu cells were treated with pevonedistat for 48 hours and pulsed with BrdU (10 nM) for 1 hour in the dark prior to harvesting. Cells were washed with PBS and staining solution before fixation and permeabilization steps according to the manufacturer's protocol. Cells were subsequently stained with anti-BrdU antibody solution for 20 minutes at room temperature, washed, and stained with 7-AAD for 30 minutes at 4° C. Cells were resuspended in 1 ml of staining buffer and stored at 4° C. overnight before analysis. Sampled were analyzed on a FACSCAN™ (Becton, Dickinson and Company, Franklin Lakes, N.J., United States of America), and different fractions of BrdU positive cells were determined using FLOWJO® (FLOWJO, LLC, Ashland, Oreg., United States of America) and ModFit (Verity Software House, Topsham, Me., United States of America) software.

VMM18 cells = assay: Rereplication by propidium iodide staining and FACS; type: cell-based, human; details: VMM18, 1 μM pevonedistat
Method: (§1) The effects of pevonedistat, vemurafenib, and/or silencing of various cell cycle-associated proteins by siRNA on cell cycle distribution and rereplication were assessed by propidium iodide staining and flow cytometry of asynchronous melanoma cultures. Synchronization of cells was not employed to avoid bias and to be able to measure the impact of these perturbations on proliferating cancer cells. Briefly, asynchronous melanoma cell lines were treated with pevonedistat or vemurafenib, or transfected with si-CDT1, si-CDT2, si-SET8, si-p21, sigeminin, si-EMI1, or si-GL2 for a time ranging from 24 to 96 hours. Cells were washed with cold PBS, harvested, and fixed in 70% (v/v) ethanol. Cells were subsequently treated with 20 μg of DNase-free RNase and stained with propidium iodide according to instructions of the manufacturer. Samples were analyzed on a FACSCAN™ (Becton, Dickinson and Company, Franklin Lakes, N.J., United States of America) and G0-G1, S, and G2-M fractions were segmented, and apoptotic (sub-G1 DNA content) and rereplicating (>G2/M DNA content) fractions were determined using FLOWJO® (FLOWJO, LLC, Ashland, Oreg., United States of America) and ModFit (Verity Software House, Topsham, Me., United States of America) software.

DM13 cells [1] = assay: as above; type: cell-based, human
Method: as §1

SLM2 melanoma cells = assay: as above; type: cell-based, human
Method: as §1

VMM39 cells [2] = assay: as above; type: cell-based, human; details: VMM39, 1 μM pevonedistat
Method: as §1

VMM1 cells = assay: as above; type: cell-based, human
Method: as §1

SK-MEL-28 cells = assay: as above; type: cell-based, human; details: SK-MEL-28, 1 μM pevonedistat
Method: as §1

DM331 cells = assay: as above; type: cell-based, human; details: DM331, 1 μM pevonedistat
Method: as §1

[3] = tested on: non-malignant melanocytes PIG3V; assay: Rereplication by FACS in non-malignant melanocytes; type: cell-based, human; details: 48 hours following treatment
Method: as §1

DM13 cells [4] = assay: Cell proliferation/viability MTT assay; type: cell-based; details: Homo sapiens, 96 hours
Method: (§2) Proliferation and viability of cultured cells was measured by CELLTITER96® Non-radioactive Cell Proliferation Assay (Promega Corporation; Madison, Wis., United States of America). Briefly, various wild type and mutant BRAF melanoma cells were seeded in 96 well plates and treated with pevonedistat, vemurafenib, or the combination pevonedistat and vemurafenib at various concentrations. Control cells were treated with DMSO. 96 hours following treatment, cells were stained with the dye solution according to the manufacturer's protocol. Absorbance was recorded at 570 nm and growth curves were established. To test the effect of transient exposure of melanoma cells to pevonedistat on rereplication and growth inhibition, washout experiments were conducted where melanoma cells or PIG3V melanocytes were treated with […] pevonedistat for different times (4, 8, 12, and 24 hours) before the drug was washed out by washing the cells twice with PBS, and adding drug-free fresh growth media to cells. Cells were counted every 24 hours using a COUNTESS™ Automated Cell Counter (INVITROGEN™, Carlsbad, Calif., United States of America), and harvested at the indicated times for PI staining and FACS analysis (cell cycle profile) or for immunoblotting.

VMM39 cells [5] = assay: Cell proliferation/viability MTT assay; type: cell-based; details: Homo sapiens, 96 hours
Method: as §2

VMM1 melanoma cells = assay: Cell proliferation/viability MTT assay; type: cell-based; details: Homo sapiens, 96 hours
Method: as §2

## NS(=O)(=O)OCC1CC(n2ccc3c(NC4CCc5ccccc54)ncnc32)CC1O [pevonedistat, ((1S,2S,4R)-4-(4-((1S)-2,3-Dihydro-H-inden-1-ylamino)-7H-pyrrolo(2,3-d)pyrimidin-7-yl)-2-hydroxycyclopentyl)methyl sulphamate]
FaDu cells; 40 nM pevonedistat 48 hours plus 2 Gy at the 24 hour time point
  cells undergoing rereplication: 42.2%
FaDu cells; 40 nM pevonedistat for 48 hours
  cells undergoing rereplication: 21.6%
FaDu cells; 100 nM pevonedistat, PI staining
  cells exhibiting >4N DNA content: 60.4%
VMM18 cells; 24 hours
  Percent of Cells in S and G2/M at 24 hours: 7.83%
VMM18 cells; 72 hours
  Percent of Cells in S and G2/M at 72 Hours: 16.9%
DM13 cells [1]; DM13, 1 μM pevonedistat, 24 hours
  Percent of Cells in S and G2/M at 24 hours: 10.4%
DM13 cells [1]; DM13, 1 μM pevonedistat, 72 hours
  Percent of Cells in S and G2/M at 72 Hours: 13.7%
DM13 cells [1]; DM13, 72 hours post-treatment
  cells undergoing rereplication: 13.7%
SLM2 melanoma cells; SLM2, 1 μM pevonedistat, 24 hours
  Percent of Cells in S and G2/M at 24 hours: 46.8%
SLM2 melanoma cells; SLM2, 1 μM pevonedistat, 72 hours
  Percent of Cells in S and G2/M at 72 Hours: 50.2%
SLM2 melanoma cells; SLM2, 72 hours post-treatment
  cells with rereplication: more than 58%
VMM39 cells [2]; 24 hours
  Percent of Cells in S and G2/M at 24 hours: 37.9%
VMM39 cells [2]; 72 hours
  Percent of Cells in S and G2/M at 72 Hours: 33.8%
VMM1 cells; VMM1, 1 μM pevonedistat, 24 hours
  Percent of Cells in S and G2/M at 24 hours: 7.72%
VMM1 cells; VMM1, 1 μM pevonedistat, 72 hours
  Percent of Cells in S and G2/M at 72 Hours: 30.8%
VMM1 cells; VMM1, 72 hours post-treatment
  cells undergoing rereplication: 25%
SK-MEL-28 cells; 24 hours
  Percent of Cells in S and G2/M at 24 hours: 38.7%
SK-MEL-28 cells; 72 hours
  Percent of Cells in S and G2/M at 72 Hours: 55.9%
DM331 cells; 24 hours
  Percent of Cells in S and G2/M at 24 hours: 47.8%
DM331 cells; 72 hours
  Percent of Cells in S and G2/M at 72 Hours: 63.2%
[3]
  rereplication: less than 3%
DM13 cells [4]
  pIC50: 7.40
VMM39 cells [5]
  pIC50: 7.46
VMM1 melanoma cells
  pIC50: 6.48
